26 compounds from patent US8163771B2, “11 β-HSD1 modulators” (Exelixis, Inc., priority 2008, dated 2012) can be followed below.

By IC50 is commonly meant the point on the concentration scale where inhibition reaches its midpoint.

The target in the test is T1, recombinant human 11 β-HSD1 (Homo sapiens, UniProt P28845).
T1 construct: made in house; host or cells: E. coli
T1 sequence (P28845 whole entry): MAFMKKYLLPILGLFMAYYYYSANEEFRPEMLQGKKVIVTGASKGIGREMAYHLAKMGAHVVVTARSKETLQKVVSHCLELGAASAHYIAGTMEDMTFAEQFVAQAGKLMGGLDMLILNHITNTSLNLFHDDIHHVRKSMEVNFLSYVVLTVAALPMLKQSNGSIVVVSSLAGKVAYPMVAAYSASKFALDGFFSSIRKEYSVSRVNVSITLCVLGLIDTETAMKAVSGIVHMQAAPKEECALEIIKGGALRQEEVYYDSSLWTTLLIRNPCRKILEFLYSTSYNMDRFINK
The test can be described thus: 11 β-HSD1 SPA Assay (Scintillation Proximity Assay). The format is biochemical. Summed up:
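Scintillation proximity read-out of cortisol formed from 40 nM [3H]cortisone by purified recombinant human enzyme (30-100 nM, E. coli) with 1 mM NADPH, pH7.4, 2 hours at room temperature; beads with cortisol antibody and glycyrrhetinic acid stop the reaction, read next day. IC50 derived from inhibition normalised to background and maximal wells.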
(In general: Scintillation proximity formats need no separation of bound from free tracer.)
For the compound `CC(C)(Oc1cc(F)c(Cl)cc1Cl)C(=O)N[C@H]1C[C@H]2CC[C@@H](C1)N2c1ccc(S(C)(=O)=O)cc1` [Example 237, 2-[(2,4-dichloro-5-fluorophenyl)oxy]-2-methyl-N-{8-[4-(methylsulfonyl)phenyl]-8-azabicyclo[3.2.1]oct-3-endo-yl}propanamide], the concentration for half-maximal inhibition (IC50) was less than 200 nM.
Consider `CC(C)(Oc1cc(-c2ccccc2)ccc1Cl)C(=O)N[C@H]1C[C@H]2CC[C@@H](C1)N2c1ccc(C(N)=O)cn1` [Example 344, 6-[3-endo-({2-[(4-chlorobiphenyl-3-yl)oxy]-2-methylpropanoyl}amino)-8-azabicyclo[3.2.1]oct-8-yl]pyridine-3-carboxamide], for which the IC50 is less than 200 nM.
In the case of `CC(C)(Oc1ccc(F)c(F)c1)C(=O)N[C@H]1C[C@H]2CC[C@@H](C1)N2c1ccc(S(N)(=O)=O)cn1` [Example 208, N-{8-[5-(aminosulfonyl)pyridin-2-yl]-8-azabicyclo[3.2.1]oct-3-endo-yl}-2-[(3,4-difluorophenyl)oxy]-2-methylpropanamide], the half-maximal inhibitory concentration (IC50) was less than 2000 nM.
Consider `CC(C)(Oc1cc(Cl)c(Cl)cc1Cl)C(=O)N[C@H]1C[C@H]2CC[C@@H](C1)N2c1ccc(S(C)(=O)=O)cc1` [Example 199, 2-methyl-N-{8-[4-(methylsulfonyl)phenyl]-8-azabicyclo[3.2.1]oct-3-endo-yl}-2-[(2,4,5-trichlorophenyl)oxy]propanamide], for which the 50% inhibitory concentration (IC50) is less than 200 nM.
As to `CC(C)(Oc1cc(F)c(Cl)cc1Cl)C(=O)N[C@H]1C[C@H]2CC[C@@H](C1)N2c1ccc(S(C)(=O)=O)cn1` [Example 236, 2-[(2,4-dichloro-5-fluorophenyl)oxy]-2-methyl-N-{8-[5-(methylsulfonyl)pyridin-2-yl]-8-azabicyclo[3.2.1]oct-3-endo-yl}propanamide], the IC50 is less than 200 nM.
For `C[C@H](NC(=O)c1ccc(N2C3CCC2CC(NC(=O)C(C)(C)Oc2ccc(F)cc2C(F)F)C3)nc1)C(F)(F)F` (stereo partly drawn) [Example 418, 6-[3-endo-({2-[2-(difluoromethyl)-4-fluorophenoxy]-2-methylpropanoyl}amino)-8-azabicyclo[3.2.1]oct-8-yl]-N-[(2S)-1,1,1-trifluoropropan-2-yl]pyridine-3-carboxamide] the value was less than 200 nM; for `CC(C)(Oc1ccc(Cl)cc1Cl)C(=O)N[C@H]1C[C@H]2CC[C@@H](C1)N2c1ccc(NS(C)(=O)=O)cn1` [Example 101, 2-[(2,4-dichlorophenyl)oxy]-2-methyl-N-(8-{5-[(methylsulfonyl)amino]pyridin-2-yl}-8-azabicyclo[3.2.1]oct-3-endo-yl)propanamide], less than 200 nM.
For `CC(C)(Oc1ccc(Cl)cc1S(C)(=O)=O)C(=O)N[C@H]1C[C@H]2CC[C@@H](C1)N2c1ccc(S(N)(=O)=O)cn1` [Example 293, N-{8-[5-(aminosulfonyl)pyridin-2-yl]-8-azabicyclo[3.2.1]oct-3-endo-yl}-2-{[4-chloro-2-(methylsulfonyl)phenyl]oxy}-2-methylpropanamide], the concentration for half-maximal inhibition (IC50) is less than 2000 nM.
As for `O=C(NC1CC1)c1ccc(N2[C@@H]3CC[C@H]2C[C@@H](NC(=O)C2(Oc4ccc(Cl)cc4)CCC2)C3)nc1` [Example 47, 6-{3-endo-[({1-[(4-chlorophenyl)oxy]cyclobutyl}carbonyl)amino]-8-azabicyclo[3.2.1]oct-8-yl}-N-cyclopropylpyridine-3-carboxamide], the IC50 is less than 200 nM.
Consider `CC(C)(Oc1ccc(Cl)cc1C(F)F)C(=O)NC1CC2CCC(C1)N2c1ccc(C(=O)NC2CC2(F)F)cn1` (stereo not drawn) [Example 393, 6-[3-endo-({2-[4-chloro-2-(difluoromethyl)phenoxy]-2-methylpropanoyl}amino)-8-azabicyclo[3.2.1]oct-8-yl]-N-(2,2-difluorocyclopropyl)pyridine-3-carboxamide], for which the concentration for half-maximal inhibition (IC50) was less than 200 nM.
Consider `CC(C)(Oc1ncc(C(F)(F)F)cc1Cl)C(=O)N[C@H]1C[C@H]2CC[C@@H](C1)N2c1ccc(S(C)(=O)=O)cc1` [Example 249, 2-{[3-chloro-5-(trifluoromethyl)pyridin-2-yl]oxy}-2-methyl-N-{8-[4-(methylsulfonyl)phenyl]-8-azabicyclo[3.2.1]oct-3-endo-yl}propanamide], for which the concentration for half-maximal inhibition (IC50) was less than 2000 nM.
`CC(C)(Oc1ccc(Cl)cc1Cl)C(=O)NC1CC2CCC(C1)N2c1ccc(C(=O)NCC(N2CCOCC2)C(F)(F)F)cn1` (stereo not drawn) [Example 470, 6-(3-endo-{[2-(2,4-dichlorophenoxy)-2-methylpropanoyl]amino}-8-azabicyclo[3.2.1]oct-8-yl)-N-[3,3,3-trifluoro-2-(morpholin-4-yl)propyl]pyridine-3-carboxamide]: the IC50 was less than 200 nM.
As to `CC(C)(Oc1ccc(Cl)cc1C(F)(F)F)C(=O)N[C@H]1C[C@H]2CC[C@@H](C1)N2c1ccc(S(C)(=O)=O)cc1` [Example 284, 2-{[4-chloro-2-(trifluoromethyl)phenyl]oxy}-2-methyl-N-{8-[4-(methylsulfonyl)phenyl]-8-azabicyclo[3.2.1]oct-3-endo-yl}propanamide], the IC50 is less than 200 nM.
As for `CC(C)(Oc1ccc(F)cc1Cl)C(=O)N[C@H]1C[C@H]2CC[C@@H](C1)N2c1ccc(NS(C)(=O)=O)cc1` [Example 315, 2-[(2-chloro-4-fluorophenyl)oxy]-2-methyl-N-(8-{4-[(methylsulfonyl)amino]phenyl}-8-azabicyclo[3.2.1]oct-3-endo-yl)propanamide], the concentration for half-maximal inhibition (IC50) was less than 200 nM.
As to `CC(C)(Oc1ccc(OC(F)(F)F)cc1)C(=O)N[C@H]1C[C@H]2CC[C@@H](C1)N2c1ccc(C(=O)NCC(F)(F)F)cn1` [Example 128, 6-(3-endo-{[2-methyl-2-({4-[(trifluoromethyl)oxy]phenyl}oxy)propanoyl]amino}-8-azabicyclo[3.2.1]oct-8-yl)-N-(2,2,2-trifluoroethyl)pyridine-3-carboxamide], the IC50 is less than 200 nM.
For `CC(C)(Oc1ncc(C(F)(F)F)cc1Cl)C(=O)N[C@H]1C[C@H]2CC[C@@H](C1)N2c1ccc(C(=O)NCC(F)(F)F)cn1` [Example 151, 6-{3-endo-[(2-{[3-chloro-5-(trifluoromethyl)pyridin-2-yl]oxy}-2-methylpropanoyl)amino]-8-azabicyclo[3.2.1]oct-8-yl}-N-(2,2,2-trifluoroethyl)pyridine-3-carboxamide] the value was less than 200 nM.
For `CC(C)(Oc1cc(F)ccc1C(F)(F)F)C(=O)N[C@H]1C[C@H]2CC[C@@H](C1)N2c1ccc(C(N)=O)cn1` [Example 309, 6-{3-endo-[(2-{[5-fluoro-2-(trifluoromethyl)phenyl]oxy}-2-methylpropanoyl)amino]-8-azabicyclo[3.2.1]oct-8-yl}pyridine-3-carboxamide] the value was less than 200 nM; for `CC(=O)Nc1ccc(N2[C@@H]3CC[C@H]2C[C@@H](NC(=O)C(C)(C)Oc2ccc(Cl)cc2Cl)C3)nc1` [Example 94, N-{8-[5-(acetylamino)pyridin-2-yl]-8-azabicyclo[3.2.1]oct-3-endo-yl}-2-[(2,4-dichlorophenyl)oxy]-2-methylpropanamide], less than 200 nM; for `C[C@@H](NC(=O)c1ccc(N2C3CCC2CC(NC(=O)C(C)(C)Oc2ccc(Cl)cc2Cl)C3)nc1)C(F)(F)F` (stereo partly drawn) [Example 373, 6-(3-endo-{[2-(2,4-dichlorophenoxy)-2-methylpropanoyl]amino}-8-azabicyclo[3.2.1]oct-8-yl)-N-[(2R)-1,1,1-trifluoropropan-2-yl]pyridine-3-carboxamide], less than 200 nM.
Take `CC(C)(Oc1nccc2ccccc12)C(=O)N[C@H]1C[C@H]2CC[C@@H](C1)N2c1ccc(C(N)=O)cn1` [Example 339, 6-(3-endo-{[2-(isoquinolin-1-yloxy)-2-methylpropanoyl]amino}-8-azabicyclo[3.2.1]oct-8-yl)pyridine-3-carboxamide]: the concentration for half-maximal inhibition (IC50) was less than 200 nM.
As for `CC(C)(Oc1ccc(F)cc1Cl)C(=O)N[C@H]1C[C@H]2CC[C@@H](C1)N2c1ccc(-c2nc(C(F)(F)F)n[nH]2)cn1` [Example 330, 2-[(2-chloro-4-fluorophenyl)oxy]-2-methyl-N-(8-{5-[3-(trifluoromethyl)-1H-1,2,4-triazol-5-yl]pyridin-2-yl}-8-azabicyclo[3.2.1]oct-3-endo-yl)propanamide], the half-maximal inhibitory concentration (IC50) is less than 2000 nM.
With `CC(C)(Oc1ccc(F)cc1Cl)C(=O)N[C@H]1C[C@H]2CC[C@@H](C1)N2c1ccc(S(C)(=O)=O)nc1` [Example 275, 2-[(2-chloro-4-fluorophenyl)oxy]-2-methyl-N-{8-[6-(methylsulfonyl)pyridin-3-yl]-8-azabicyclo[3.2.1]oct-3-endo-yl}propanamide], the IC50 was less than 200 nM.
For `CC(C)(Oc1cc(Cl)c(Cl)cc1Cl)C(=O)N[C@H]1C[C@H]2CC[C@@H](C1)N2c1ccc(S(N)(=O)=O)cn1` [Example 198, N-{8-[5-(aminosulfonyl)pyridin-2-yl]-8-azabicyclo[3.2.1]oct-3-endo-yl}-2-methyl-2-[(2,4,5-trichlorophenyl)oxy]propanamide] the value was less than 200 nM; for `O=C(NC1CC1)c1ccc(N2[C@@H]3CC[C@H]2C[C@@H](NC(=O)C2(c4cccc(F)c4)CC2)C3)nc1` [Example 39, N-cyclopropyl-6-[3-endo-({[1-(3-fluorophenyl)cyclopropyl]carbonyl}amino)-8-azabicyclo[3.2.1]oct-8-yl]pyridine-3-carboxamide], less than 200 nM.
Turning to `CC(C)(Oc1cc(C(C)(C)O)c(Cl)cc1Cl)C(=O)N[C@H]1C[C@H]2CC[C@@H](C1)N2c1ccc(C(=O)NCC(F)F)cn1` [Example 429, 6-[3-endo-({2-[2,4-dichloro-5-(2-hydroxypropan-2-yl)phenoxy]-2-methylpropanoyl}amino)-8-azabicyclo[3.2.1]oct-8-yl]-N-(2,2-difluoroethyl)pyridine-3-carboxamide], the IC50 is less than 200 nM.
Turning to `CC(C)(Oc1ccc2ccccc2c1)C(=O)N[C@H]1C[C@H]2CC[C@@H](C1)N2c1ccc(C(N)=O)cn1` [Example 316, 6-(3-endo-{[2-methyl-2-(naphthalen-2-yloxy)propanoyl]amino}-8-azabicyclo[3.2.1]oct-8-yl)pyridine-3-carboxamide], the half-inhibitory concentration (IC50) is less than 200 nM.
